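Where inhibition never reached the appropriate level, the endpoint shown equals the highest concentration tested. Otherwise, values were interpolated linearly from a five-concentration, 48-hour dose response in 96-well plates. TGI: concentration producing complete growth inhibition.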
Key:
Assay in all cases: DTP human tumour cell line panel, 48 h
NCI/ADR-RES ovarian = tested on: NCI/ADR-RES ovarian
UO-31 renal = tested on: UO-31 renal
RPMI-8226 leukemia = tested on: RPMI-8226 leukemia
K-562 leukemia = tested on: K-562 leukemia
SF-268 CNS = tested on: SF-268 CNS
MOLT-4 leukemia = tested on: MOLT-4 leukemia
KM12 colon = tested on: KM12 colon
CAKI-1 renal = tested on: CAKI-1 renal
U251 CNS = tested on: U251 CNS
IGROV1 ovarian = tested on: IGROV1 ovarian
HOP-62 NSCLC = tested on: HOP-62 NSCLC
SNB-19 CNS = tested on: SNB-19 CNS
TK-10 renal = tested on: TK-10 renal
UACC-257 melanoma = tested on: UACC-257 melanoma
HOP-92 NSCLC = tested on: HOP-92 NSCLC
A498 renal = tested on: A498 renal
HCT-116 colon = tested on: HCT-116 colon
NCI-H460 lung = tested on: NCI-H460 lung
CCRF-CEM leukemia = tested on: CCRF-CEM leukemia

SMILES | TGI (NCI/ADR-RES ovarian) [µM] | TGI (UO-31 renal) [µM] | TGI (RPMI-8226 leukemia) [µM] | TGI (K-562 leukemia) [µM] | TGI (SF-268 CNS) [µM] | TGI (MOLT-4 leukemia) [µM] | TGI (KM12 colon) [µM] | TGI (CAKI-1 renal) [µM] | TGI (U251 CNS) [µM] | TGI (IGROV1 ovarian) [µM] | TGI (HOP-62 NSCLC) [µM] | TGI (SNB-19 CNS) [µM] | TGI (TK-10 renal) [µM] | TGI (UACC-257 melanoma) [µM] | TGI (HOP-92 NSCLC) [µM] | TGI (A498 renal) [µM] | TGI (HCT-116 colon) [µM] | TGI (NCI-H460 lung) [µM] | TGI (CCRF-CEM leukemia) [µM]
O=c1oc2ccccc2c(O)c1C(c1ccc(-c2ccccc2)cc1)c1c(O)c2ccccc2oc1=O | 58.6 | 31.6 | 95.8 | > 100 | 57.1 | > 100 | 38.1 | 39.4 | > 100 | > 100 | 55.4 | > 100 | > 100 | > 100 | 48.5 | > 100 | 79.1 | 33.7 | 93.8
CO[C@@]12C[C@@H](C)[C@]34O[C@H]3C[C@]3(C)O[C@]43CC1=C(C)C(=O)O2 | > 100 | > 100 | > 100 | > 100 | > 100 | – | > 100 | > 100 | > 100 | > 100 | – | > 100 | > 100 | > 100 | > 100 | > 100 | > 100 | > 100 | –
COc1ccccc1/C=C1\S/C(=N/Nc2nc(C)c(C(C)=O)s2)NC1=O | > 100 | 90.4 | 89.4 | > 100 | 96.6 | > 100 | > 100 | > 100 | > 100 | – | > 100 | > 100 | > 100 | > 100 | 48 | 45.5 | > 100 | > 100 | > 100
O=C(O)CCCNc1ncc2c(n1)-c1ccccc1OC2 | > 100 | > 100 | > 100 | > 100 | > 100 | > 100 | > 100 | > 100 | > 100 | > 100 | > 100 | > 100 | > 100 | > 100 | > 100 | – | > 100 | > 100 | > 100
COC(=O)Cc1c([C@H]2[C@H](CC(=O)OC)c3ccccc3N2S(=O)(=O)c2ccc(C)cc2)[nH]c2ccccc12 | > 100 | > 100 | > 100 | > 100 | > 100 | > 100 | > 100 | > 100 | > 100 | – | > 100 | > 100 | > 100 | > 100 | > 100 | > 100 | > 100 | > 100 | > 100
COC1=C2CC(C)CC(OC)C(OC(=O)CN)[C@H](C)/C=C(\C)C(OC(N)=O)C(OC)/C=C\C=C(/C)C(=O)NC(=CC1=O)C2=O (stereo not given in full) | 27.8 | 11.6 | > 100 | > 100 | 16.4 | 1.57 | 4.29 | 17 | 12.6 | 1.62 | 6.02 | 20.7 | 15.6 | 1.02 | 1.27 | 24.7 | 3.45 | 20.9 | –
CC(NC1=CC(=O)c2cccnc2C1=O)C(O)c1ccccc1 (stereo not given) | 24.2 | 9.49 | 6.7 | 5.93 | 20.8 | 22.4 | 27.8 | 7.23 | 13.2 | 6.18 | 3.03 | 5.66 | 28.1 | 2.84 | 24.5 | 8.82 | 7.79 | 2.78 | 25.5
CN(C)C(=S)C(Cl)(c1ccccc1)c1ccccc1 | > 100 | > 100 | – | > 100 | > 100 | > 100 | > 100 | > 100 | > 100 | > 100 | > 100 | > 100 | > 100 | > 100 | > 100 | > 100 | > 100 | > 100 | > 100
COC(=O)c1cc(O)c(O)c(O)c1-c1c(O)c(O)c(O)c(SC[C@H](NC(=O)OCc2ccccc2)C(=O)OCc2ccccc2)c1C(=O)OC | > 100 | – | 81.7 | 70.2 | > 100 | 43.4 | > 100 | 35.2 | 33.5 | 84.2 | > 100 | > 100 | > 100 | > 100 | > 100 | > 100 | 35.7 | > 100 | > 100
CN1C(=O)C(C(=O)Nc2ccccn2)C2C[C@@]1(C)Oc1ccccc12 (stereo not given in full) | > 100 | > 100 | > 100 | > 100 | > 100 | > 100 | > 100 | > 100 | > 100 | > 100 | > 100 | > 100 | > 100 | > 100 | > 100 | > 100 | > 100 | > 100 | > 100
CCOC(=O)/C(C(=S)NCc1ccccc1)=C(/N)N1CCCC1 | > 100 | > 100 | > 100 | > 100 | > 100 | > 100 | > 100 | > 100 | > 100 | > 100 | > 100 | > 100 | > 100 | > 100 | > 100 | > 100 | > 100 | > 100 | > 100
C/C(=N\Nc1nc2ccccc2[nH]1)c1cnccn1 | 21.3 | > 27.2 | – | > 100 | > 100 | > 100 | 22.4 | 14.9 | > 59.5 | > 38.4 | > 100 | > 100 | > 66.5 | > 31 | 2.38 | 7.75 | > 38 | > 100 | 6.75
CCOC(=O)NN(C(=O)OCC)C(=C(C1=CCCCC1)N1CCOCC1)N(NC(=O)OCC)C(=O)OCC | > 100 | > 100 | > 100 | > 100 | > 100 | > 100 | > 100 | > 100 | > 100 | > 100 | > 100 | > 100 | > 100 | – | > 100 | > 100 | – | > 100 | –
O=C(CSCC(=O)N/N=C\c1ccc(O)c(O)c1O)N/N=C\c1ccc(O)c(O)c1O | 3.16 | 34.7 | 6.86 | – | > 100 | 11.9 | 37.1 | 37.1 | 19.2 | 42.2 | – | > 100 | 42 | 50 | > 100 | > 100 | 13.4 | 56.3 | 4.75
c1ccc(Cn2c(-c3ccc(-c4ccccc4)cc3)cc3ccccc32)cc1 | > 100 | > 100 | > 100 | – | > 100 | > 100 | > 100 | > 100 | > 100 | > 100 | > 100 | > 100 | > 100 | > 100 | > 100 | – | > 100 | > 100 | > 100
O=C(COc1ccccc1)N(C(=O)N1CCN(c2ccccc2)CC1)S(=O)(=O)c1ccccc1 | > 100 | > 100 | – | > 100 | > 100 | 61.9 | > 100 | > 100 | > 100 | – | > 100 | > 100 | > 100 | > 100 | > 100 | > 100 | > 100 | > 100 | 61.2
Nc1ncc(C=O)c(NCC2(CO)CCC2)n1 | > 100 | > 100 | > 100 | > 100 | > 100 | > 100 | > 100 | 44.3 | > 100 | > 100 | > 100 | – | 73.8 | > 100 | 87.8 | > 100 | > 100 | > 100 | > 100
Nc1cccc(OCC2CCCN3CCCCC23)c1 (stereo not given) | 38.3 | 75.2 | 33.1 | 76.1 | 36.2 | 39.2 | 32.4 | 35.2 | 44.6 | – | 36.1 | 32.8 | 34.1 | 34.3 | 87.4 | 28.2 | 30.4 | 36.3 | 34.4
CCOC(=O)C1C(c2ccc(OC)cc2)c2c([nH][nH]c2=O)CC1(C)O (stereo not given) | > 100 | > 100 | > 100 | – | > 100 | > 100 | > 100 | > 100 | > 100 | > 100 | > 100 | > 100 | > 100 | > 100 | > 100 | > 100 | > 100 | > 100 | > 100
COC(=O)c1ccc(C)cc1CC1Cc2cccc(C)c2C1=O (stereo not given) | 66.3 | 56.7 | – | 9.79 | > 100 | 18.4 | 23 | > 100 | 17.4 | > 100 | > 100 | > 100 | 48.6 | 47.9 | 58.7 | – | 20.8 | 22.7 | 51.3
CCC1(CC)N=C(C(F)(F)F)c2cc(C(=O)C(F)(F)F)c3ccccc3c2N1 | 42.1 | 16.9 | – | > 100 | 27 | – | > 100 | > 100 | 23.6 | 23 | 28.5 | > 100 | 61.3 | 33.9 | 10.2 | 35.3 | 16.1 | 24.1 | 31.1
COc1ccc(N=Nc2ccc3oc(=O)c(C(=O)Nc4ccccc4C)cc3c2)cc1 | > 10 | > 10 | > 10 | – | > 10 | > 10 | > 10 | > 10 | > 10 | > 10 | > 10 | – | > 10 | > 10 | > 10 | > 10 | – | > 10 | –
CCOC(=O)c1c(N2CCCC2)[nH]c(=O)c(C(c2ccc(Cl)c([N+](=O)[O-])c2)c2c(O)c(C(=O)OCC)c(N3CCCC3)[nH]c2=O)c1O | 73.4 | 66.6 | > 100 | > 100 | 55.2 | > 100 | > 100 | 60.6 | 36.9 | – | > 100 | 49.9 | 59.2 | > 100 | 58.3 | > 100 | > 100 | > 100 | 79.3
c1ccc(-c2c(-c3cccs3)[nH]c(-c3cccs3)c2-c2ccccn2)nc1 | 64.8 | 57.3 | 68.5 | 37 | 49.8 | 38.3 | 62.6 | > 100 | 48.7 | 59.3 | – | > 100 | > 100 | 43.6 | 55.4 | 78.2 | > 100 | 63.5 | 52.5
COc1ccc(-c2csc(Cc3nc4c(Br)cc(Br)cc4c(=O)n3-c3ccc(OC)cc3)n2)cc1 | > 100 | > 100 | – | – | – | > 100 | > 100 | > 100 | > 100 | > 100 | > 100 | 50.6 | > 100 | > 100 | > 100 | > 100 | > 100 | > 100 | > 100

From PubChem BioAssay (NCI)
